According to ChEMBL document CHEMBL1201862, “PubChem BioAssay data set” (2004):
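Briefly, cells in 96-well plates were exposed to five compound concentrations for 48 h, and endpoints were estimated by linear interpolation. Abbreviation: GI50, concentration required for 50% inhibition of growth.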 Calls of active or inactive are those of the source. No stated cut-off is given here; in the data, active = GI50 up to about 1.1 µM and inactive = higher.

Columns and labels:
Assay in all cases: NCI-60 cell line screen, 48 h
[1] = system: HOP-62
[2] = system: KM12
[3] = system: IGROV-1
[4] = system: EKVX
[5] = system: OVCAR-4
[6] = system: NCI-H23
[7] = system: SK-MEL-5
[8] = system: OVCAR-3
[9] = system: BT-549
[10] = system: MDA-MB-231
[11] = system: ACHN
[12] = system: CCRF-CEM
[13] = system: Hs-578T
[14] = system: A498
[15] = system: OVCAR-5
[16] = system: M14
[17] = system: SF-539
[18] = system: COLO 205
[19] = system: DU-145
[20] = system: SF-295

SMILES: C=CC(COC(=O)C(C)(C)OC(C)=O)c1ccc(OC(=O)C(C)C)c(OC)c1 (stereo not given)
- GI50 [1]: 10100 nM (inactive)
- GI50 [2]: 4070 nM (inactive)
- GI50 [3]: 14100 nM (inactive)
- GI50 [4]: 12700 nM (inactive)
- GI50 [5]: 7890 nM (inactive)
- GI50 [6]: 18800 nM (inactive)
- GI50 [7]: 13500 nM (inactive)
- GI50 [8]: 4760 nM (inactive)
- GI50 [9]: 8870 nM (inactive)
- GI50 [10]: 2640 nM (inactive)
- GI50 [11]: 2880 nM (inactive)
- GI50 [12]: 2780 nM (inactive)
- GI50 [13]: 7460 nM (inactive)
- GI50 [14]: 17200 nM (inactive)
- GI50 [15]: 14600 nM (inactive)
- GI50 [16]: 6430 nM (inactive)
- GI50 [17]: 11800 nM (inactive)
- GI50 [18]: 2460 nM (inactive)
- GI50 [19]: 11200 nM (inactive)
- GI50 [20]: 4230 nM (inactive)

SMILES: CN(C)CCOc1ccc2[nH]c(C(=O)N3CC(CCl)c4ccc(N)cc43)cc2c1 (stereo not given)
- GI50 [1]: 35.6 nM (active)
- GI50 [2]: 73.3 nM (active)
- GI50 [3]: 39.5 nM (active)
- GI50 [4]: 231 nM (active)
- GI50 [5]: 70.3 nM (active)
- GI50 [6]: 56.2 nM (active)
- GI50 [7]: 45.1 nM (active)
- GI50 [8]: 63.1 nM (active)
- GI50 [9]: 192 nM (active)
- GI50 [10]: 1390 nM (inactive)
- GI50 [11]: 28.1 nM (active)
- GI50 [12]: 38.1 nM (active)
- GI50 [13]: 176 nM (active)
- GI50 [14]: 208 nM (active)
- GI50 [15]: 141 nM (active)
- GI50 [16]: 145 nM (active)
- GI50 [17]: 385 nM (active)
- GI50 [18]: 83 nM (active)
- GI50 [19]: 32.3 nM (active)
- GI50 [20]: 88.5 nM (active)
